In PubChem BioAssay AID489023 (Sanford-Burnham Center for Chemical Genomics, 2010):
Calls of active or inactive are those of the source. The rule behind the calls is not given here.

The molecules below were run on 697B cells, BCR-induced NF-kB luciferase reporter luminescence (assay: inhibitors of BCR-induced NF-kB activation, dose response, 697B cells, luciferase luminescence (AID 489023)).
In the case of `Cc1ccc(C(=O)OCC(=O)N(CC(C)C)c2c(N)n(Cc3ccccc3)c(=O)[nH]c2=O)o1`, the IC50 is reported as 20.6 µM (inactive).
With `CCOCCCNc1nc2c(C)cccn2c(=O)c1/C=C1\SC(=S)N(C(C)CC)C1=O` (stereo not drawn) the IC50 was 36.3 µM (inactive).
`O=C(Oc1cccc(/C=N/Nc2nc(Nc3ccccc3)nc(N3CCOCC3)n2)c1)c1ccco1` was tested, and the IC50 was 2.99 µM.
`CC(C)c1ccc(/C=C2\SC(=S)N(CCC(=O)NCCCn3ccnc3)C2=O)cc1` showed an IC50 of 16.6 µM.
`O=C(CN1C(=O)c2ccccc2S1(=O)=O)N1CCc2ccccc21` gave an IC50 of 1.24 µM.
In the case of `Cc1cc(C)cc(NC(=O)Nc2ccc(NC(=O)c3ccccc3O)cc2)c1`, the IC50 is reported as > 80 µM (inactive).
With `COc1ccc(NS(=O)(=O)c2cc(NC(=O)c3cc(=O)c4ccccc4o3)ccc2OC)cc1` the IC50 was > 80 µM (inactive).
For `CCOc1ccc(/C=C2\SC(=S)N(CCCC(=O)NCCCN3CCOCC3)C2=O)cc1`, the IC50 was 0.43 µM.
With `COc1cc(NC(=O)c2cc3c(C)nc4ccccc4c3o2)cc(OC)c1OC` the IC50 was 14.1 µM.
In the case of `Cc1ccc(C(=O)NNC(=O)CCCN2C(=O)/C(=C/c3ccccc3Cl)SC2=S)cc1`, the IC50 is reported as 22 µM (inactive).
For `O=C(Nc1cccc(S(=O)(=O)Nc2ccc(Cl)cc2)c1)c1ccc(Cl)nc1`, the IC50 was 41.6 µM (inactive).
`NNC(=O)COc1ccc(-c2nccc(-c3ccc(F)cc3)n2)cc1` was tested, and the IC50 was 4.92 µM.
With `CC(=O)c1cccc(S(=O)(=O)Nc2cc(C(F)(F)F)ccc2N2CCOCC2)c1` the IC50 was > 80 µM (inactive).
`Cc1[nH]c2ccccc2c1/C=N/Nc1nc(Nc2ccc(F)cc2)nc(N2CCOCC2)n1` was tested, and the IC50 was 1.22 µM.
In the case of `Cc1cccc(C(=O)Nc2ccc(CC(=O)O)cc2)c1`, the IC50 is reported as 24.1 µM (inactive).
For `Cc1cc(OC(=O)c2ccccc2Cl)cc(=O)n1C`, the IC50 was > 80 µM (inactive).
`CCN(CC(=O)Nc1c(F)cccc1F)C(=O)c1cc(S(=O)(=O)N(CC)CC)ccc1N1CCCCC1` was tested, and the IC50 was 4.04 µM.
With `Cc1ccc(C(=O)C[n+]2cc(-c3ccc(C)cc3)n3c2CCCCC3)cc1` the IC50 was 38.9 µM (inactive).
In the case of `O=C(CCl)N(c1ccc(Cl)cc1)c1c[nH]c2ccccc12`, the IC50 is reported as 0.27 µM.
`Nc1ccccc1SCC(=O)Nc1nc(-c2ccccc2)cs1` was tested, and the IC50 was > 80 µM (inactive).
For `COc1cc(C(=O)Nc2cc(C)c(OCC(=O)N3CCOCC3)c(C)c2)cc(OC)c1OC`, the IC50 was > 80 µM (inactive).
For `COCCNC(=O)CSCc1nc(-c2ccc(SC)cc2)oc1C`, the IC50 was 4.56 µM.
In the case of `COc1cc(-c2[nH]nc3c2C(c2ccco2)C(C#N)=C(N)O3)cc(OC)c1OC` (stereo not drawn), the IC50 is reported as > 80 µM (inactive).
With `COc1ccc(/C=C/c2ccccc2)cc1[C@H]1[C@H]2C=CC[C@@H](C)[C@@H]2C(=O)N1Cc1ccccc1` the IC50 was > 80 µM (inactive).
Work on `CCN(CC(=O)Nc1c(F)cccc1F)C(=O)c1cc([N+](=O)[O-])ccc1N1CCCCC1` yielded an IC50 of 13.6 µM.
For `Cc1ccc(NC(=O)C2CCC(CNc3c(N4CCC(C)CC4)c(=O)c3=O)CC2)cc1F` (stereo not drawn), the IC50 was > 80 µM (inactive).
Work on `CCOC(=O)Cc1csc(NC(=S)NC(=O)c2ccc(C)cc2)n1` yielded an IC50 of 5.88 µM.
In the case of `CCN(CC)c1ccc2cc(NC(=O)CCC(=O)O)c(=O)oc2c1`, the IC50 is reported as 1.23 µM.
With `CC1CCN(C(=O)CCCOc2cc(=O)n(C)c3ccccc23)CC1` the IC50 was > 80 µM (inactive).
Molecule `COc1ccc(-c2noc(CCCC(=O)Nc3ccc(C(N)=O)cc3)n2)cc1` has an IC50 of 8.71 µM.
`Cn1cnc([N+](=O)[O-])c1Sc1ccc([N+](=O)[O-])cc1` gave an IC50 of 3.61 µM.
`COc1ccccc1/C=C1\SC(=S)N(CCC(=O)Nc2cc(C)on2)C1=O` was tested, and the IC50 was 36.8 µM (inactive).
In the case of `CN(CC1CCCO1)S(=O)(=O)c1ccc(C(=O)Nc2nc3cc4c(cc3s2)OCO4)cc1` (stereo not drawn), the IC50 is reported as > 80 µM (inactive).
In the case of `CCCNC(=O)c1ccc(N2CCC3(CC2)CC(c2cccc(Br)c2)=NO3)c(NC(=O)c2ccc(Cl)c([N+](=O)[O-])c2)c1`, the IC50 is reported as > 80 µM (inactive).
`Cc1ccc(Nc2nc(N3CCOCC3)nc(N3CCOCC3)n2)cc1C` gave an IC50 of 1.33 µM.
Molecule `CCc1ccc(/C=C2\SC(=S)N(CCC(=O)NC3=NCCS3)C2=O)cc1` has an IC50 of 12.4 µM.
`COc1ccc(NC(=O)CN(C)C(=O)C2(c3ccccc3)CCCC2)cc1` gave an IC50 of 3.56 µM.
With `CC(=O)C1=NN(c2ccccc2)C(c2cccs2)N1c1ccc(N(C)C)cc1` (stereo not drawn) the IC50 was 31.7 µM (inactive).
`CCC(C)[C@H](N)c1nnc(SCC(=O)c2ccc(Cl)cc2)o1` (stereo partly drawn) was tested, and the IC50 was > 80 µM (inactive).
`CCOC(=O)N1CCN(CC(=O)Nc2ccc([N+](=O)[O-])cc2C(=O)Nc2ccccc2F)CC1` was tested, and the IC50 was 29.1 µM (inactive).
`CCCN1C(=O)/C(=C/c2c(N3CCNC(=O)C3CC(=O)OCC)nc3c(C)cccn3c2=O)SC1=S` (stereo not drawn) showed an IC50 of 5.89 µM.
`COc1ccc(/C=N\NC(=O)c2sccc2C)cc1Cn1nc(C)cc1C` was tested, and the IC50 was 55.9 µM (inactive).
With `N=c1c2c(n(Cc3ccc(Cl)c(Cl)c3)c3c1CCC3)CCCC2` the IC50 was 31.1 µM (inactive).
`Cc1nn(-c2ccc(N3CCCCC3)nn2)c(C)c1CCC(=O)Nc1ccccc1F` was tested, and the IC50 was > 80 µM (inactive).
For `CCn1c(=O)cc(OCC(=O)NCc2ccc(C)o2)c2ccccc21`, the IC50 was > 80 µM (inactive).
For `CNC(=O)CCc1nc(-c2ccc(C(C)(C)C)cc2)no1`, the IC50 was under 0.16 µM.
In the case of `CSc1ccc(-c2nc(CSCC(=O)NC3CC3)c(C)o2)cc1`, the IC50 is reported as 2.44 µM.
With `CCOC(=O)C(=CNc1cc(C)ccc1C)C(=O)OCC` the IC50 was 49.2 µM (inactive).
